Assay results: DBAASP
Values after ≈ are worked out from the molar mass of the structure shown. Values joined by “and” are separate entries in the source; they are usually repeats but may differ in a detail not shown here. Equal values may be shown once.

Tests used:
Assay in all cases: ≥ marks a high value that may be exact or a test limit, other limits are often not marked, values filed in µg/mL are converted to µM
[1] = tested on: Enterococcus faecium t62764
Pseudomonas aeruginosa 9 = tested on: Pseudomonas aeruginosa 9
[2] = tested on: Pseudomonas aeruginosa 198
[3] = tested on: Enterobacter cloacae 218R
[4] = tested on: Staphylococcus aureus ATCC 25923
[5] = tested on: Pseudomonas aeruginosa H1027
[6] = tested on: Enterococcus faecium mic80
[7] = tested on: Stenotrophomonas maltophilia ATCC 13637
[8] = tested on: Pseudomonas aeruginosa PAO1 H103
[9] = tested on: Escherichia coli ESBL 63103
[10] = tested on: Pseudomonas aeruginosa 213
[11] = tested on: Enterococcus faecalis W61950
[12] = tested on: Pseudomonas aeruginosa LES400
[13] = tested on: Klebsiella pneumoniae ESBL 61962
[14] = tested on: Pseudomonas aeruginosa H1030
[15] = tested on: Staphylococcus aureus C623
[16] = tested on: Enterococcus faecalis ATCC 29212
[17] = tested on: Escherichia coli ESBL 64771
[18] = tested on: Klebsiella pneumoniae ESBL 63575
[19] = tested on: Enterococcus faecalis f43559
Staphylococcus aureus = tested on: Staphylococcus aureus
Escherichia coli = tested on: Escherichia coli
Bacillus subtilis = tested on: Bacillus subtilis
Pseudomonas aeruginosa = tested on: Pseudomonas aeruginosa
[20] = tested on: Micrococcus luteus AB93113
[21] = tested on: Bacillus subtilis AB91021
Micrococcus luteus = tested on: Micrococcus luteus
Vibrio cholerae CUN 09 = tested on: Vibrio cholerae CUN 09
[22] = tested on: Staphylococcus aureus ATCC 43300
[23] = tested on: Pseudomonas aeruginosa CUN 4158-02
[24] = tested on: Escherichia coli ATCC 25922
[25] = tested on: Bordetella bronchiseptica CUN 11844-99
[26] = tested on: Batrachochytrium dendrobatidis JEL-197
[27] = tested on: Escherichia coli ATCC 25726
[28] = tested on: Escherichia coli NCTC 10418
Candida tropicalis = tested on: Candida tropicalis
[29] = tested on: Candida albicans ATCC 1023
Candida albicans = tested on: Candida albicans
[30] = tested on: Staphylococcus aureus NCTC 10788
[31] = tested on: Enterococcus faecalis NCTC 12697
[32] = tested on: Pseudomonas aeruginosa ATCC 27853

For CC[C@H](C)[C@H](NC(=O)[C@H](Cc1ccccc1)NC(=O)[C@H](CCCCN)NC(=O)[C@H](Cc1ccccc1)NC(=O)[C@H](CCCN=C(N)N)NC(=O)[C@@H](N)CCCN=C(N)N)C(=O)N[C@@H](CCCN=C(N)N)C(=O)N[C@@H](Cc1c[nH]c2ccccc12)C(=O)N[C@@H](Cc1c[nH]c2ccccc12)C(=O)O [RRFKFIRWW], the MIC [1] was 3.15 µM (≈ 4.4 µg/mL), the MIC (Pseudomonas aeruginosa 9) was 12.2 µM (≈ 17 µg/mL) and the MIC [2] was 25.1 µM (≈ 35 µg/mL). For the same compound, the MIC [3] was 6.17 µM (≈ 8.6 µg/mL), the MIC [4] was 3.15 µM (≈ 4.4 µg/mL) and the MIC [5] was 1.58 µM (≈ 2.2 µg/mL). For the same compound, the MIC [6] was 3.15 µM (≈ 4.4 µg/mL), the MIC [7] was 0.43 µM (≈ 0.6 µg/mL) and the MIC [8] was 3.15 µM (≈ 4.4 µg/mL). The MIC [9] was 6.17 µM (≈ 8.6 µg/mL), the MIC [10] was 25.1 µM (≈ 35 µg/mL) and the MIC [11] was at least 50.2 µM. The MIC [12] was 6.17 µM (≈ 8.6 µg/mL), the MIC [13] was at least 50.2 µM and the MIC [14] was 25.1 µM (≈ 35 µg/mL). It also gave an MIC [15] of 3.15 µM (≈ 4.4 µg/mL), an MIC [16] of 6.17 µM (≈ 8.6 µg/mL) and an MIC [17] of 6.17 µM (≈ 8.6 µg/mL). It also gave an MIC [18] of 25.1 µM (≈ 35 µg/mL) and an MIC [19] of 25.1 µM (≈ 35 µg/mL).

CC[C@H](C)[C@H](NC(=O)[C@H](C)NC(=O)[C@H](CO)NC(=O)[C@@H]1CCCN1C(=O)[C@@H](NC(=O)[C@H](CC(C)C)NC(=O)[C@H](CO)NC(=O)[C@H](Cc1ccccc1)NC(=O)[C@H](CC(C)C)NC(=O)[C@@H](N)Cc1ccccc1)[C@@H](C)CC)C(=O)N[C@@H](CO)C(=O)NCC(=O)N[C@@H](CC(C)C)C(=O)N[C@H](C(=O)N[C@@H](CO)C(=O)N[C@@H](C)C(=O)N[C@@H](Cc1ccccc1)C(=O)N[C@@H](CCCCN)C(N)=O)[C@@H](C)CC [FLFSLIPSAISGLISAFK] was tested, and the MIC (Staphylococcus aureus) was 8.37 µM (≈ 16 µg/mL), the MIC (Escherichia coli) was 9.47 µM and 9.5 µM and the MIC (Bacillus subtilis) was 25.5 µM (≈ 48.8 µg/mL). The MIC (Pseudomonas aeruginosa) was 47.5 µM, the MIC [20] was at least 42.6 µM and the MIC [21] was 25.5 µM (≈ 48.7 µg/mL). For the same compound, the MIC (Micrococcus luteus) was at least 42.6 µM.

CC(C)C[C@H](NC(=O)[C@H](CCCCN)NC(=O)CNC(=O)[C@H](CCCCN)NC(=O)[C@H](Cc1ccccc1)NC(=O)[C@H](CCCCN)NC(=O)[C@H](Cc1c[nH]c2ccccc12)NC(=O)[C@H](CCCN=C(N)N)NC(=O)[C@H](Cc1ccccc1)NC(=O)[C@H](CCCN=C(N)N)NC(=O)[C@H](CCCN=C(N)N)NC(=O)[C@H](Cc1ccc(O)cc1)NC(=O)[C@H](CCCCN)NC(=O)[C@H](CCCCN)NC(=O)[C@H](CS)NC(=O)CN)C(=O)N[C@@H](Cc1ccccc1)C(=O)N[C@@H](CC(C)C)C(=O)N[C@@H](Cc1ccccc1)C(=O)NCC(N)=O [GCKKYRRFRWKFKGKLFLFG] gave an MIC (Vibrio cholerae CUN 09) of 6.24 µM (≈ 16 µg/mL), an MIC [4] of 3.12 µM (≈ 8 µg/mL) and an MIC [22] of 3.12 µM (≈ 8 µg/mL). The MIC [23] was 6.24 µM (≈ 16 µg/mL), the MIC [24] was 3.12 µM (≈ 8 µg/mL) and the MIC [25] was 1.56 µM (≈ 4 µg/mL).

Work on CC[C@H](C)[C@H](NC(=O)[C@H](Cc1c[nH]c2ccccc12)NC(=O)[C@H](CCCCN)NC(=O)[C@@H](N)CCCN=C(N)N)C(=O)N[C@@H](Cc1c[nH]c2ccccc12)C(=O)N[C@@H](CCCN=C(N)N)C(=O)N[C@@H](Cc1c[nH]c2ccccc12)C(=O)N[C@@H](Cc1ccccc1)C(=O)N[C@@H](CC(C)C)C(=O)O [RKWIWRWFL] yielded an MIC [1] of 1.58 µM (≈ 2.2 µg/mL), an MIC (Pseudomonas aeruginosa 9) of 6.18 µM (≈ 8.6 µg/mL) and an MIC [2] of 1.58 µM (≈ 2.2 µg/mL). It also gave an MIC [3] of 1.58 µM (≈ 2.2 µg/mL), an MIC [4] of 1.58 µM (≈ 2.2 µg/mL) and an MIC [5] of 0.791 µM (≈ 1.1 µg/mL). The MIC [6] was 1.58 µM (≈ 2.2 µg/mL), the MIC [7] was 0.791 µM (≈ 1.1 µg/mL) and the MIC [8] was 3.16 µM (≈ 4.4 µg/mL). It also gave an MIC [9] of 0.791 µM (≈ 1.1 µg/mL), an MIC [10] of 3.16 µM (≈ 4.4 µg/mL) and an MIC [11] of 12.2 µM (≈ 17 µg/mL). For the same compound, the MIC [12] was 3.16 µM (≈ 4.4 µg/mL), the MIC [13] was 1.58 µM (≈ 2.2 µg/mL) and the MIC [14] was 1.58 µM (≈ 2.2 µg/mL). It also gave an MIC [15] of 1.58 µM (≈ 2.2 µg/mL), an MIC [16] of 3.16 µM (≈ 4.4 µg/mL) and an MIC [17] of 0.791 µM (≈ 1.1 µg/mL). It also gave an MIC [18] of 1.58 µM (≈ 2.2 µg/mL) and an MIC [19] of 12.2 µM (≈ 17 µg/mL).

CC[C@H](C)[C@H](NC(=O)CN)C(=O)N[C@@H](CC(C)C)C(=O)N[C@@H](CC(=O)O)C(=O)N[C@H](C(=O)N[C@@H](Cc1ccccc1)C(=O)N[C@@H](CCCCN)C(=O)NCC(=O)N[C@H](C(=O)N[C@@H](C)C(=O)N[C@@H](CCCCN)C(=O)NCC(=O)N[C@H](C(=O)N[C@@H](C)C(=O)N[C@@H](CCCCN)C(=O)N[C@@H](CC(=O)O)C(=O)N[C@@H](CC(C)C)C(=O)N[C@@H](C)C(=O)N[C@H](C(=O)N[C@@H](Cc1cnc[nH]1)C(=O)N[C@@H](CCSC)C(=O)N[C@@H](CC(C)C)C(=O)N[C@@H](CCC(=O)O)C(=O)N[C@@H](CCCCN)C(=O)N[C@@H](CC(C)C)C(=O)N[C@@H](CCCCN)C(=O)N[C@H]1CSSC[C@@H](C(=O)O)NC(=O)CNC(=O)[C@H]([C@@H](C)O)NC(=O)[C@H](CCSC)NC(=O)[C@H](CCCCN)NC1=O)C(C)C)C(C)C)C(C)C)[C@@H](C)O [GILDTFKGVAKGVAKDLAVHMLEKLKCKMTGC] showed an MIC [26] of 25 µM (≈ 85.1 µg/mL), an MIC [4] of 40 µM (≈ 136 µg/mL) and an MIC [27] of at least 40 µM.

CSCC[C@H](NC(=O)[C@H](CC(=O)O)NC(=O)[C@@H](NC(=O)[C@@H](NC(=O)[C@H](C)NC(=O)[C@H](CC(N)=O)NC(=O)[C@H](CC(C)C)NC(=O)[C@H](C)NC(=O)[C@H](C)NC(=O)[C@H](CCCCN)NC(=O)CNC(=O)[C@H](C)NC(=O)[C@H](C)NC(=O)[C@H](CCCCN)NC(=O)CNC(=O)[C@@H](NC(=O)[C@H](CC(N)=O)NC(=O)[C@H](CCCCN)NC(=O)[C@H](CC(C)C)NC(=O)[C@H](CC(C)C)NC(=O)[C@@H](NC(=O)[C@H](CCCCN)NC(=O)[C@H](Cc1c[nH]c2ccccc12)NC(=O)[C@H](CC(C)C)NC(=O)[C@H](C)N)[C@@H](C)O)C(C)C)C(C)C)[C@@H](C)O)C(=O)N[C@H](C(=O)N[C@@H](CC(N)=O)C(=O)N[C@@H](CCC(N)=O)C(=O)O)C(C)C [ALWKTLLKNVGKAAGKAALNAVTDMVNQ] showed an MIC [28] of 2.5 µM (≈ 7.32 µg/mL), an MIC (Candida tropicalis) of 10.9 µM (≈ 31.9 µg/mL) and an MIC [29] of 10.9 µM (≈ 31.9 µg/mL). It also gave an MIC [4] of 1.3 µM (≈ 3.8 µg/mL), an MIC (Candida albicans) of 21.8 µM (≈ 63.8 µg/mL) and an MIC [24] of 2.5 µM (≈ 7.32 µg/mL). The MIC [30] was 1.3 µM (≈ 3.8 µg/mL), the MIC [16] was 10 µM (≈ 29.3 µg/mL) and the MIC [31] was 10 µM (≈ 29.3 µg/mL). It also gave an MIC [32] of 40 µM (≈ 117 µg/mL).

In the case of CC[C@H](C)[C@H](NC(=O)[C@@H](NC(=O)[C@@H]1CCCN1C(=O)[C@H](CC(C)C)NC(=O)[C@@H](N)Cc1ccccc1)[C@@H](C)CC)C(=O)N[C@H](C(=O)N[C@@H](CC(N)=O)C(=O)N[C@@H](CC(C)C)C(=O)N[C@@H](CC(C)C)C(=O)NCC(=O)N[C@@H](CCCCN)C(=O)N[C@@H](CC(C)C)C(=O)N[C@@H](CC(C)C)C(N)=O)[C@@H](C)O [FLPIITNLLGKLL], the MIC [26] is reported as at least 100 µM, the MIC [4] is reported as 6 µM (≈ 8.72 µg/mL) and the MIC [27] is reported as at least 100 µM.
